Patent EP4527843A1, “STEREOISOMERIC PHOSPHATIDYLOLIGOGLYCEROL” (Thermosome GmbH, priority 2023, dated 2025)
Where two headings read alike, the source gives them in different places. One block for each compound: values may come before it.

Experiments:
Phospholipase A2 = molecular target: T1, Phospholipase A2 (Sus scrofa, UniProt P00592); test: Stereospecific cleavage of DPPG2 with Phospholipase A2 (HPLC/CAD); assay type: in vitro ADME, porcine; details: 0.5 U enzyme; for DPPG2 still detectable in the sample: after 10 min, 2 µmol lipid, Tris-buffer pH 8.5 with CaCl2, 37°C, normalized to t=0 min
T1 construct: commercially available enzyme (extracted from porcine pancreas) was used; purchased; host or cells: porcine pancreas (tissue extract)
Procedure: Phospholipases are enzymes that selectively cleave bonds in glycerophospholipids based on their stereochemistry. They play a role in the metabolization of glycerophospholipids in vivo. Phospholipase A2 hydrolyzes 1,2-acyl-sn-glycero-3-phospholipids to their 1-acyl-sn-glycero-3-phospholipid and the corresponding fatty acid. For the experiments, commercially available enzyme (extracted from porcine pancreas) was used. Lipid samples (2 µmol) were dissolved 1.5 wt% deoxycholate and subsequently incubated in Tris-buffer pH 8.5 supplemented with CaCl2 together with 0.5 U enzyme in a thermoshaker at 37°C. At distinct time points, samples were taken and cleavage was analyzed by HPLC. […] The analytes are separated using a gradient elution using 100 mM NH4Ac pH 6.0 in water and methanol as eluent A and eluent B, respectively. Column oven was set to 35°C.
Three DPPG2 batches differing in configurations of the stereogenic centers in their diglycerol headgroup were tested and DPPC was applied as control glycerophospholipid (Figure 2). […] After 10 min, 14.8%, 20.4%, and 24.3% of DPPG2 according to WO 9730058, WO 2014/202680 A1, and Formula III, respectively, was still detectable in the sample.

[1] = PK study in healthy rats after i.v. bolus, normothermia; assay type: in vivo, Brown Norway rats; details: 2 mg/kg DOX i.v. bolus, rat; result in words
Procedure: For the PK study, 18 anaesthetized healthy male Brown Norway rats (-300 g) received a dose of 2 mg/kg DOX of either non-liposomal DOX (n = 6), DPPG2-TSL-DOX (DPPG2 according to formula III) (n = 6), or DPPG2-TSL-DOX (DPPG2 according to WO 97/30059) (n = 6) as i.v. bolus injection, respectively. Body temperature of the animals was controlled via a rectal temperature probe. During anesthesia, the body temperature of animals was maintained by a water bath (37°C). Blood samples were taken at defined time points. DOX and DPPG2 content were measured in plasma by HPLC equipped with a fluorescence detector and LC/MS, respectively.

[2] = Accumulation of DOX in tumor tissue and organs, rat BN175 sarcoma model; assay type: in vivo, Brown Norway rats; details: male, Brown Norway, rat, 60 min after i.v. bolus 2 mg/kg DOX
Procedure: (§1) Eighteen anaesthetized tumor-bearing male Brown Norway rats (-300 g) received a dose of 2 mg/kg DOX of either non-liposomal DOX (n = 6), DPPG2-TSL-DOX (DPPG2 according to formula III) (n = 6), or DPPG2-TSL-DOX (DPPG2 according to WO 97/30059) (n = 6) as i.v. bolus injection, respectively. All animals had two BN175 tumors (soft tissue sarcoma) subcutaneously implanted to each hind leg, respectively. One tumor received 60 min of a local HT treatment with a light source of 41.5°C, whereas the second tumor remained untreated (room temperature, NT). […] Animals were sacrificed after 60 min, organs were perfused, and tumors and organs were collected. DOX content was measured in plasma by HPLC equipped with a fluorescence detector.

[3] = tested on: BN175 tumors (soft tissue sarcoma); test: as above; assay type: in vivo, Brown Norway rats
Procedure: as §1

[4] = tested on: BN175 tumor (soft tissue sarcoma); details: 2 mg/kg DOX single i.v. bolus in combination with 60 min lamp HT (41°C); ranking in words
Procedure: Finally, the therapeutic efficacy of both DPPG2-TSL-DOX formulations was investigated in vivo and compared to selected clinically relevant DOX formulations (e.g., non-liposomal DOX, Caelyx). […] All animals had one BN175 tumor (soft tissue sarcoma) s.c. implanted to one hind leg. Local HT treatment was performed with a light source. Target temperature was 41 °C. Animals were preheated to this temperature for 30 min and temperature was maintained at 41 °C for 60 min after i.v. bolus injection. Animals treated with a DOX formulation received 2 mg/kg DOX as single i.v. bolus injection after one tumor diameter was > 5 mm. After the end of the treatment, animals were placed back into a cage and tumor growth was monitored every 2nd day until reaching an end point (e.g., tumor diameter > 3 cm, exulzeration, bleeding, skin toxicity).

T1 sequence (P00592 23-146): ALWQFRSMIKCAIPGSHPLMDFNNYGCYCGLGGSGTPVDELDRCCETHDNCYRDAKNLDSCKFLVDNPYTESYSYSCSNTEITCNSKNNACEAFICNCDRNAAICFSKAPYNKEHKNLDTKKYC

Compound: CCCCCCCCCCCCCCCC(=O)OC[C@H](COP(=O)(O)OC[C@@H](O)COCC(O)CO)OC(=O)CCCCCCCCCCCCCCC (stereo partly shown) [DPPG2 according to WO 2014/202680 A1, 1,2-Dipalmitoyl-sn-glycero-3-phospho-sn-1'-diglycerol]
- DPPG2 still detectable in the sample (Phospholipase A2): 20.4%

Compound: CCCCCCCCCCCCCCCC(=O)OC[C@H](COP(=O)(O)OC[C@@H](O)COC[C@H](O)CO)OC(=O)CCCCCCCCCCCCCCC [DPPG2 according to Formula III, 1,2-dipalmitoyl-sn-glycero-3-phospho-sn-1'-glycero-sn-3"-glycerol]
- DPPG2 still detectable in the sample (Phospholipase A2): 24.3%

Compound: COc1cccc2c1C(=O)c1c(O)c3c(c(O)c1C2=O)C[C@@](O)(C(=O)CO)C[C@@H]3O[C@H]1C[C@H](N)[C@H](O)[C@H](C)O1 [non-liposomal DOX, doxorubicin]
- DOX plasma clearance [1]: cleared within minutes
- concentration at 60 min ([2]; heated BN175 tumor (HT 41.5°C), iv, HT 41.5°C, read-out: DOX concentration in the heated tumors): 3100 ± 500 ng/g
- concentration at 60 min ([2]; untreated BN175 tumor (NT, iv), NT, room temperature, read-out: DOX concentration in the untreated tumors): 1900 ± 300 ng/g
- DOX accumulation in lung and heart compared to both DPPG2-TSL-DOX formulations ([3]; 60 min after i.v. bolus 2 mg/kg DOX, result in words): significantly higher
- increase of DOX tumor accumulation by HT application (compared to the content in the untreated tumors) ([3]; 60 min local HT 41.5°C light source vs untreated tumor, 2 mg/kg DOX i.v.): 1.6 fold
- survival (Kaplan-Meier, 5-fold increase in tumor volume) / therapeutic efficacy [4]: comparable

Other lines, results leading:

- cleavage by phospholipase A2 compared with DPPG2 (Phospholipase A2; control glycerophospholipid, 37°C): cleaved notably slower than DPPG2
Compound: CCCCCCCCCCCCCCCC(=O)OC[C@H](COP(=O)([O-])OCC[N+](C)(C)C)OC(=O)CCCCCCCCCCCCCCC [DPPC, 1,2-dipalmitoyl-sn-glycero-3-phosphocholine]

- DPPG2 still detectable in the sample (Phospholipase A2): 14.8%
Compound: CCCCCCCCCCCCCCCC(=O)OC[C@H](COP(=O)(O)OCC(O)COCC(O)CO)OC(=O)CCCCCCCCCCCCCCC (mixture of isomers) [DPPG2 according to WO 9730058, 1,2-Dipalmitoyl-sn-glycero-3-phospho-rac-diglycerol]
